Experiments:
[1] = test system: HeLa cells; assay: Visual assessment of cytotoxicity, HeLa cells; type: cell-based, human; conditions: for rounded up cells in mitosis (visual assessment): HeLa cells (paclitaxel sensitive), 24-well plate (FIG. 5A)
Source text: (§1) The cytotoxicity of the compounds were initially assessed visually and by photomicroscopy. Visual inspection of dose response experiments over a protracted time course provides valuable information on the responses of cells to the treatments. Phase contrast microscopy allows one to assess whether cells are undergoing mitotic arrest and/or apoptosis by their altered morphology. Mitotic cells rounded up with smooth membranes and often condensed chromosomes aligned at a metaphase plate were clearly visible. […] Cells were plated in 24-well plates and allowed to attach and stabilize overnight. Cells were then treated with compounds in dose response and photomicrographs were taken at various time points over 2 days. Photographs were assembled in composite figures showing dose response at a given time point.

[2] = test system: HeLa cells; assay: Clonogenic viability assay, HeLa cells; type: cell-based, human; conditions: for colony formation (clonogenic cytotoxicity): Hela cells (paclitaxel sensitive), colonies counted after 10 days (FIG. 6A)
Protocol: (§2) Clonogenic assays are used to determine the impact of a test compositions on the ability of cells to replicate. Cells are plated at cloning densities (100 and 500 cells per well in a 6-well plate; 3 wells of each cell number), and allowed to attach and stabilize overnight. Cells are then treated in dose-response experiments with test composition(s) (one concentration of test composition per plate) and incubated for 7-10 days to allow colonies of >30 cells to form. Colonies are stained with crystal violet and counted. Colony forming ability is then calculated as a percent of control by setting the mean number of colonies per well of cells treated with vehicle (0.1% DMSO) equal to 100 percent.

[3] = test system: SK-MEL-28 cells; assay: Visual assessment of cytotoxicity, SK-MEL-28 cells; type: cell-based, human; conditions: for rounded up cells in mitosis (visual assessment): SK-MEL-28 cells (paclitaxel resistant), 24-well plate (FIG. 5B)
Source text: as §1

[4] = test system: HeLa cells; assay: Mitotic index and mitotic catastrophe index determination (mitotic spread assay), HeLa cells; type: cell-based, human; conditions: for percent of nuclei present as clean mitotic spreads (mitotic index) / percentage of nuclei presenting as mitotic catastrophe: 60 μM T-8 or 10 μM T-3, 24 h, vs DMSO control, p<0.05 (FIG. 4)
Protocol: (§3) Cells were harvested for mitotic index analysis by trypsinization. Media, wash, and trypsinized cells were collected together and centrifuged to pellet all the cells. Cells were resuspended in 150 mL serum free media and 2.5 mL 0.4% KCl was added. The suspension was incubated for 10 minutes at 37° C. Methanol:acetic acid fixative solution (3:1, v/v) was then added to 2% (v/v) and cells were collected by centrifugation. Cells were resuspended in 2.5 mL fixative solution and fixed at room temperature for 20 minutes. Samples were centrifuged; pellets were resuspended in 0.5 mL fixative and chilled on ice for one hour. Aliquots of the suspensions were dropped onto slides (two slides per sample), air dried, and stained with Wright Giemsa solution (States et al., Toxicol. Appl. Pharmacol., Vol. 180, pages 83-91 (2002); Taylor et al., J. Pharmacol. Exp. Ther., Vol. 318, pages 142-151 (2006)). Slides were examined under a microscope and at least 200 cells were counted on each slide for determination of mitotic index and mitotic catastrophe index. Only cells with distinct interphase nuclei appearance (panel Q from FIG. 2), metaphase spread appearance (panel S from FIG. 2), or mitotic catastrophe appearance (panel T from FIG. 2) were counted. Mitotic index and mitotic catastrophe index were determined using the following formula: Mitotic index=(cells with mitotic spread appearance as exemplified in panel S of FIG. 2)/(total number of counted cells) Mitotic catastrophe index=(cells with mitotic catastrophe appearance as exemplified in panel T of FIG. 2)/(total number of counted cells)
Three independent experiments were analyzed. DAPI stain in mounting media (Molecular Probes) added directly to the slides was used to identify DNA in interphase nuclei, mitotic spreads, mitotic catastrophe, and nuclear fragmentation by fluorescence microscopy.
Test compositions T-1 to T-9 in Table 1 were tested for their ability to induce mitotic arrest using a mitotic spread assay because it can also be used to score for mitotic catastrophe (Taylor et al., J. Pharmacol. Exp. Ther., Vol. 318, Pages 142-151 (2006); Taylor et al., Toxicol. Appl. Pharmacol., Vol. 230, Pages 235-246 (2008)). […] In these tests, a single concentration of each test composition was tested based on cytotoxicity results of FIG. 1 and on results of observational studies to determine the dose and time course of morphological changes induced (data not shown). The concentrations chosen were the minimum concentrations required to induce <10% survival and morphological changes at 16-24 hours.

[5] = test system: SK-MEL-28 cells; assay: Clonogenic viability assay, SK-MEL-28 cells; type: cell-based, human; conditions: SK-MEL-28 cells (paclitaxel resistant); colonies counted after 10 days (FIG. 6B)
Protocol: as §2

[6] = test system: A375 cells; assay: Mitotic index and mitotic catastrophe index determination (mitotic spread assay), A375 cells; type: cell-based, human; conditions: selected concentrations (1-10 μM), eighteen hours, among T-1 to T-9 (FIG. 3)
Protocol: as §3, with “Aliquots of the suspensions were dropped onto slides (two slides per sample), air dried, and stained with Wright Giemsa solution (States et al., Toxicol. Appl. Pharmacol., Vol. 180, pages 83-91 (2002); Taylor et al., J. Pharmacol. Exp. Ther., Vol. 318, pages 142-151 (2006)).” left out
Three independent experiments were analyzed. […]

[7] = test system: A375 cells; assay: AlamarBlue viability assay, A375 cells; type: cell-based, human; conditions: 32 h (FIG. 8B)
Protocol: (§4) The test compositions in Table 1 were tested first for their ability to induce cytotoxicity in dose response curves using an AlamarBlue assay using two cancer cell lines.
(§5) The method used for the viability assay follows. Cells were seeded in 96-well plates for measuring cell growth during treatment by the tested compound using the AlamarBlue fluorescence assay (Biosource International, Inc., Camarillo, Calif.). AlamarBlue (resazurin) is a soluble, non-toxic dye used to monitor the functional electron transport chain of a viable cell by reduction of the dye from its oxidized, non-fluorescent (blue) state to the reduced, fluorescent (pink) state (resorufin). AlamarBlue was added six hours prior to the desired time point in an amount equal to 10% (v/v) of the culture volume, and the plates were returned to the incubator. At the end of the six hour incubation, the amount of AlamarBlue reduction was measured using a fluorometric plate reader ([…]). The plate reader was blanked by reading the fluorescence of cell free medium supplemented with AlamarBlue (States et al., Toxicol. Appl. Pharmacol., Vol. 180, pages 83-91 (2002)). Data are reported as a percentage of the untreated control. Three independent experiments were analyzed and results are shown as average±standard deviation.

[8] = test system: HeLa cells; assay: AlamarBlue viability assay, HeLa cells; type: cell-based, human; conditions: for effectiveness at reducing viability (Alamar Blue), rank among T-8, T-13, T-14: 32 h (FIG. 8A)
Protocol: as §4, §5

[9] = test system: tGM24 cells; assay: AlamarBlue viability assay, tGM24 cells; type: cell-based, human; conditions: 32 h (FIG. 10)
Protocol: as §5

[10] = test system: GM0637 cells; assay: AlamarBlue viability assay, GM0637 cells; type: cell-based, human; conditions: 32 h (FIG. 10)
Protocol: as §5

[11] = test system: SK-MEL-28 cells; assay: AlamarBlue viability assay, SK-MEL-28 cells; type: cell-based, human; conditions: 32 h (FIG. 10)
Protocol: as §5

[12] = test system: tGM24 cells; assay: Visual assessment of cytotoxicity, tGM24 cells; type: cell-based, human
Source text: as §1

[13] = test system: GM0637 cells; assay: Visual assessment of cytotoxicity, GM0637 cells; type: cell-based; conditions: GM0637 (SV40-transformed human skin fibroblasts); 49 h (FIG. 9)
Source text: as §1

[14] = tGM24 normal diploid cells, 49 h (FIG. 9)

| SMILES | rounded up cells in mitosis (visual assessment) [1] | colony formation (clonogenic cytotoxicity) [2] | rounded up cells in mitosis (visual assessment) [3] | colony formation (clonogenic cytotoxicity) [5] | effectiveness at reducing viability (Alamar Blue), rank among T-8, T-13, T-14 [7] | effectiveness at reducing viability (Alamar Blue), rank among T-8, T-13, T-14 [8] | further results |
| --- | --- | --- | --- | --- | --- | --- | --- |
| COc1cccc(NC2=NC3(CCCCC3)N=C(N)N2)c1 [T-11] | less effect | decreased colony formation | less effect |  |  |  | relative effectiveness in decreasing colony formation ([2]; Hela cells, among T-3, T-8, T-10, T-11 (FIG. 6A)): least effective |
| CCCCOc1ccc(NC2=NC3(CCCCC3)N=C(N)N2)cc1 [T-3] | accumulate | decreased colony formation | accumulate | decreased colony formation |  |  | percent of nuclei present as clean mitotic spreads (mitotic index) [4]: increased; percentage of nuclei presenting as mitotic catastrophe [4]: higher percentage; mitotic index ([4]; selected concentrations (1-10 μM), twice the concentration used for A375, eighteen hours, among T-1 to T-9 (FIG. 3)): highest mitotic index; mitotic index [6]: highest mitotic index |
| CCCCOc1ccc(NC2=NC3(CCCC3)N=C(N)N2)cc1 [T-10] | at slightly higher concentrations | decreased colony formation | at slightly higher concentrations | decreased colony formation |  |  |  |
| CCc1ccc(OCCOCC(O)CNC2CCCC2)cc1.Cl (racemic) [T-13] |  |  |  |  | followed by T-13 | followed by T-13 |  |
| Cl.OC(CNC1CCCC1)COCCOc1ccc(Br)cc1 (racemic) [T-8] |  | decreased colony formation |  | decreased colony formation | most effective | most effective | accumulation of mitotic cells and apoptotic cells (visual assessment) ([1]; HeLa (paclitaxel sensitive human cervical carcinoma), 49 h (FIG. 9)): accumulated; cytotoxicity (Alamar Blue), sensitivity compared across cell lines [9]: relatively resistant; percent of nuclei present as clean mitotic spreads (mitotic index) [4]: decreased; percentage of nuclei presenting as mitotic catastrophe [4]: higher percentage; cytotoxicity (Alamar Blue), sensitivity compared across cell lines [10]: moderate sensitivity; cytotoxicity (Alamar Blue), sensitivity compared across cell lines [11]: moderate sensitivity; cytotoxicity (Alamar Blue), sensitivity compared across cell lines ([8]; 32 h (FIG. 10)): most effective; selectivity for carcinoma cells and transformed cells compared to normal diploid cells ([12]; SK-MEL-28, HeLa, GM0637 vs tGM24, visual assessment (FIG. 9)): selectivity of T-8 for carcinoma cells and transformed cells; accumulation of mitotic cells and apoptotic cells (visual assessment) ([12]; tGM24 (telomerase immortalized human diploid skin fibroblasts), 49 h (FIG. 9)): not in tGM24; increase in cell number (visual assessment) ([12]; tGM24, 49 h (FIG. 9)): less apparent; cell death of normal diploid cells (visual assessment) [12, 14]: not observed; growth of normal diploid cells (visual assessment) [12, 14]: appeared to be inhibited; accumulation of mitotic cells and apoptotic cells (visual assessment) [13]: accumulated; accumulation of mitotic cells and apoptotic cells (visual assessment) ([3]; SK-MEL-28 (paclitaxel resistant human melanoma), 49 h (FIG. 9)): accumulated |
| COc1ccc(NC2=NC3(CCCC3)N=C(N)N2)cc1 [T-12] | less effect |  | less effect |  |  |  |  |
| CC(C)NCC(O)COCCOc1ccc(Cl)cc1.Cl (racemic) [T-14] |  |  |  |  | least efficacy | least efficacy |  |

Source: patent publication US10849863B2, “Compounds for treating cancer, for administering, and for pharmaceutical compositions” (UNIVERSITY OF LOUISVILLE RESEARCH FOUNDATION, INC., priority 2011, dated 2020)
